{"source": "paper PMC5054364", "about": "“Neuroprotective pentapeptide CN-105 improves functional and histological outcomes in a murine model of intracerebral hemorrhage” (Scientific Reports, 2016)", "assay_type_in_all_cases": "in vivo, C57BL/6J mice", "key": {"[1]": {"system": "murine model of collagenase-induced ICH", "experiment": "Morris water maze testing after ICH", "details": "Days 29–32 after ICH, 0.05 mg/kg i.v. at 4, 8 and 24 hours post ICH, n = 14/group", "protocol": "(§1) Experiment 4. Neurobehavioral assessment. Animals were randomized to vehicle (n = 14) or CN-105 (n = 14) groups, and evaluated for neurobehavioral function (neuroscore), vestibulomotor function (rotarod), and spatial learning (MWM). Mice received tail vein injections of vehicle or CN105 at 4, 8, and 24 hours post ICH.\n(§2) Intrastriatal collagenase injection was used to induce ICH in mice, as previously described. Briefly, the trachea was intubated after anesthesia induction with 4.6% isoflurane, and the lungs were mechanically ventilated with 1.5% isoflurane in a mixture of 30%/70% O2/N2. Rectal temperature was maintained at 37 °C ± 0.2 °C by circulating warm water in an underbody waterbed. The animal’s head was secured in a stereotactic frame, and a midline scalp incision was made. After exposing the skull, a burr hole was created 2.2 mm left lateral to bregma, and a 0.5 μL syringe needle (Hamilton, Reno, NV, USA) was advanced to a depth of 3 mm from cortex. Type IV-S Clostridial collagenase (Sigma, St. Louis, MO, USA) was injected over 2 minutes (0.075 U in 0.4 μL normal saline). […]\nThe MWM[20] was used to assess the effects of therapeutic intervention on spatial learning and memory. […] Latency to find the platform was recorded by a computerized video tracking system (KeilSoft LLC, Chapel Hill, NC)."}, "[2]": {"system": "murine model of collagenase-induced ICH", "experiment": "Rotarod testing (vestibulomotor function) after ICH", "details": "Days 1–5 after ICH; 0.05 mg/kg i.v. at 4, 8 and 24 hours post ICH; p = 0.0435; n = 14/group", "protocol": "as §1, §2\nAn automated rotarod (Ugo Basile, Comerio, Italy) was used to assess the effects of therapeutic intervention on vestibulomotor function. […] The average time lapse to fall from the rotating cylinder in the second set of trials was recorded as baseline latency. […] Average latency to fall from the rod was recorded."}, "[3]": {"system": "murine model of collagenase-induced ICH", "experiment": "Histological hemorrhage volume (H&E staining) after ICH", "details": "0.05 mg/kg i.v. tail vein at 2, 6 and 24 hours post-ICH; saline 7.97 ± 0.97, p = 0.66; mean ± standard error, n = 3/group", "protocol": "Experiment 2. Hematoma volume. Hemorrhage volume was assessed by magnetic resonance imaging (MRI) at 2 hours post ICH (before treatment) and 24 hours post ICH. 3 saline- and 3 CN-105-treated animals were perfused at 24 hours post ICH, and brain hematoxylin and eosin (H&E) staining was performed. CN-105 or saline was given by tail vein injection at 2, 6, and 24 hours post-ICH.\nIntrastriatal collagenase injection was used to induce ICH in mice, as previously described. Briefly, the trachea was intubated after anesthesia induction with 4.6% isoflurane, and the lungs were mechanically ventilated with 1.5% isoflurane in a mixture of 30%/70% O2/N2. Rectal temperature was maintained at 37 °C ± 0.2 °C by circulating warm water in an underbody waterbed. The animal’s head was secured in a stereotactic frame, and a midline scalp incision was made. […]\nHistological hematoma volume was measured at 24 hours after injury to coincide with maximum hematoma expansion. […] Lesion volume was measured by digitally sampling stained sections with an image analyzer (M2 Turnkey System, Imaging Research, Inc., St. Catharines, Ontario, Canada). Lesion volumes (mm^3) were computed as running sums of lesion area multiplied by the known interval between sections (400 μm) over the extent of the lesion, and expressed as an orthogonal projection."}}, "data": [{"substance": "Ac-VSRRR-NH2 [CN-105, Ac-VSRRR-amide]", "values": [{"measurement": "Morris water maze escape latencies versus vehicle", "setting": "[1]; Day x Group p = 0.02", "value": "significantly lower latencies"}, {"measurement": "Morris water maze learning curves (learning slopes) versus vehicle", "setting": "[1]; p = 0.01", "value": "significantly steeper learning curves"}, {"measurement": "rotarod motor functional recovery versus vehicle", "setting": "[2]", "value": "significantly improved motor functional recovery"}, {"measurement": "hemorrhage volume by H&E staining at 24 hours after ICH", "setting": "[3]", "value": "8.43 ± 0.15", "unit": "mm^3"}]}]}
